This experiment addresses G2019S LRRK2 (Homo sapiens, UniProt Q5S007, G2019S). Put plainly: DiscoveRx KINOMEscan binding constant (Kd). Set-up: purchased DiscoveRx (KINOMEscan service); host or cells: E. coli BL21-derived host (T7 phage) or HEK-293. The method, then: Compounds of formulas (II), (I), (I-A), (I-B), (I-C), (I-D), (I-D-1), (I-D-2), (I-E), (I-F), (I-G), (I-H), (I-I), (I-I-1), (I-I-2), (I-J), (I-K), (I-L), (I-M), (I-N), (I-Z-1), (I-Z-2), (I-Z-2-a), (I-Z-2-b), (I-Z-2-c), (I-Z-2-d), (I-Z-3-a), (I-Z-3-b), (I-Z-3-c), or (I-Z-3-d) were tested using DiscoveRx's KINOMEscan™ technology to measure a binding constant (Kd) to wild type and G2019S LRRK2. Kinase-tagged T7 phage strains were prepared in an E. coli host derived from the BL21 strain. E. coli were grown to log-phase and infected with T7 phage and incubated with shaking at 32° C. until lysis. The lysates were centrifuged and filtered to remove cell debris. The remaining kinases were produced in HEK-293 cells and subsequently tagged with DNA for qPCR detection. Streptavidin-coated magnetic beads were treated with biotinylated small molecule ligands for 30 minutes at room temperature to generate affinity resins for kinase assays. The liganded beads were blocked with excess biotin and washed with blocking buffer (SeaBlock (Pierce), 1% BSA, 0.05% Tween 20, 1 mM DTT) to remove unbound ligand and to reduce non-specific binding. Binding reactions were assembled by combining kinases, liganded affinity beads, and test compounds in 1× binding buffer (20% SeaBlock, 0.17×PBS, 0.05% Tween 20, 6 mM DTT). All reactions were performed in polystyrene 96-well plates in a final volume of 0.135 ml. The assay plates were incubated at room temperature with shaking for 1 hour and the affinity beads were washed with wash buffer (lx PBS, 0.05% Tween 20). The beads were then re-suspended in elution buffer (lx PBS, 0.05% Tween 20, 0.5 μM non-biotinylated affinity ligand) and incubated at room temperature with shaking for 30 minutes. The kinase concentration in the eluates was measured by qPCR. An 11-point 3-fold serial dilution of each test compound was prepared in 100% DMSO at 100× final test concentration and subsequently diluted to 1× in the assay (final DMSO concentration=[…]). Most Kds were determined using a compound top concentration=30,000 nM.

Some results are limits rather than exact numbers.

Chain of G2019S LRRK2 (Q5S007 whole entry G2019S): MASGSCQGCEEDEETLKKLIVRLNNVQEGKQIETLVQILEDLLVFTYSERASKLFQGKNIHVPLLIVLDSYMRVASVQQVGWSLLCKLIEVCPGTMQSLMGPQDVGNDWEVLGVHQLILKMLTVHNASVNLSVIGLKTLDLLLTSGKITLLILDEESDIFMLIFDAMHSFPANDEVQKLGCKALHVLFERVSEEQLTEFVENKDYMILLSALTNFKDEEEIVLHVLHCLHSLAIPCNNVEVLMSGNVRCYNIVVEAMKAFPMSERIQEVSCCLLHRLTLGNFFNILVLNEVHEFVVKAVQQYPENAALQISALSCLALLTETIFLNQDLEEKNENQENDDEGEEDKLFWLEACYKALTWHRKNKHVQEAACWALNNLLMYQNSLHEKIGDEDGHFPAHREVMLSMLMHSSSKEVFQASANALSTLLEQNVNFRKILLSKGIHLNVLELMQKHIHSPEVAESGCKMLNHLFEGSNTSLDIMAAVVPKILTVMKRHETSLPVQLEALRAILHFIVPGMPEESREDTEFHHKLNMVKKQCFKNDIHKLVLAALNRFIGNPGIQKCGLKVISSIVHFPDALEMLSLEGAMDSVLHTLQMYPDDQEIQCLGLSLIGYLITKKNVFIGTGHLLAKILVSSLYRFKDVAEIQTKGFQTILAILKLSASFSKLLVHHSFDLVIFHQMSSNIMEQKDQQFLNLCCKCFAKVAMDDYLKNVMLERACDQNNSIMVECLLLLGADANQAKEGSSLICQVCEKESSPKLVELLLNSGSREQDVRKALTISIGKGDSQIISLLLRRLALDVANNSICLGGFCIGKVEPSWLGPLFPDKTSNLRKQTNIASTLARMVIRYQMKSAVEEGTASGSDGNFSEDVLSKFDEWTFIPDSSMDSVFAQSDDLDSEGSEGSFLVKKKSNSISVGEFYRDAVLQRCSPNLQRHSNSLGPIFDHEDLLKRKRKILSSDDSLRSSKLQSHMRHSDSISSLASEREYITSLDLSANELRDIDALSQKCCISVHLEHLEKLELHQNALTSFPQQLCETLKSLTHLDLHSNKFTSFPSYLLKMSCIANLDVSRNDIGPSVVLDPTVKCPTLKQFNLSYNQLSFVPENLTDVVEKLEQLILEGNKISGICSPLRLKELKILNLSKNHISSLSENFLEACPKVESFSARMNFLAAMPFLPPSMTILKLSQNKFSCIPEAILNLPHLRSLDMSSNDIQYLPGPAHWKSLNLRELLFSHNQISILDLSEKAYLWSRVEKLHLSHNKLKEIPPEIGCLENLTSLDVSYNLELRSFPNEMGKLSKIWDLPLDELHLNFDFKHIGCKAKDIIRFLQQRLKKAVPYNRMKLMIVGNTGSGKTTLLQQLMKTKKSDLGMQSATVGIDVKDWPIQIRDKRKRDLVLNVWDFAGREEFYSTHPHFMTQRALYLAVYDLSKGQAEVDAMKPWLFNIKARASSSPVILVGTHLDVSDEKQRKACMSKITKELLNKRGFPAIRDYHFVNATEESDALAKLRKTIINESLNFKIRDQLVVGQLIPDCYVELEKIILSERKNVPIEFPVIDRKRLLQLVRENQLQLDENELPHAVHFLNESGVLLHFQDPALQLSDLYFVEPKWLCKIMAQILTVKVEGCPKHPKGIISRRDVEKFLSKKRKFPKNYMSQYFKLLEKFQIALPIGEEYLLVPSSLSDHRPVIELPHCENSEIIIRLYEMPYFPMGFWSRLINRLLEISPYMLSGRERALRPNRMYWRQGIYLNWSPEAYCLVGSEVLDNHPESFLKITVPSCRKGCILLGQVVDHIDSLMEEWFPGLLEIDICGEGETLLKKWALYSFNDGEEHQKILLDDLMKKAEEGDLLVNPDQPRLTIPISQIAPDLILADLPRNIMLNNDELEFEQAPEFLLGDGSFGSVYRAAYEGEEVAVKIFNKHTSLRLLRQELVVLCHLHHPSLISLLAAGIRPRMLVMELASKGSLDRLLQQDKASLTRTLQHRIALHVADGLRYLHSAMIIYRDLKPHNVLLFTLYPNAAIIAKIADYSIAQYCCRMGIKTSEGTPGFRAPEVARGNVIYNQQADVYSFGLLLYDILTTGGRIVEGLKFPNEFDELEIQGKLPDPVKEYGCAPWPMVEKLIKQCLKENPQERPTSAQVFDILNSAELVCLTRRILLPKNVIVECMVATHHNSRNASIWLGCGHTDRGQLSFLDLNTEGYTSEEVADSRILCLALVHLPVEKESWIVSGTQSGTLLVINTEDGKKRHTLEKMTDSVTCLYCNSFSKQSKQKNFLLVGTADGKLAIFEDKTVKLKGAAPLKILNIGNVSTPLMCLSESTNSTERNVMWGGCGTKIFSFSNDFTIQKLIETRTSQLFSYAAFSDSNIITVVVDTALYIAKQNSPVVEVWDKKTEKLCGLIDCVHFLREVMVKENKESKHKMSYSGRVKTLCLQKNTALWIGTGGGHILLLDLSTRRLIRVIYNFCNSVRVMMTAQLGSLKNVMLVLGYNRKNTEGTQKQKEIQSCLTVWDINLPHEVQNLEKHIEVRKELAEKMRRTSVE

For orientation: Kd means the concentration at which binding is half-saturated. A lower Kd goes with higher affinity. Under “numeric value”, `CC(C)Oc1ccc2c(c1)/C(=C/c1cnc(C3CCN(CCF)CC3)[nH]1)C(=O)N2` [Compound 31, (3Z)-3-[[2-[1-(2-fluoroethyl)-4-piperidyl]-1H-imidazol-5-yl]methylene]-5-isopropoxy-indolin-2-one] came in with a Kd of 43 nM. On to `CCc1nnc(/C=C2\C(=O)Nc3ccc(OC)cc32)[nH]1` [Compound 25, (3Z)-3-[(5-ethyl-4H-1,2,4-triazol-3-yl)methylene]-5-methoxy-indolin-2-one], for which the Kd was no less than 1000 nM (class symbol) and greater than 30000 nM (numeric value).

For `CC(C)Oc1ccc2c(c1)/C(=C/c1ncc(C3CCOCC3)[nH]1)C(=O)N2` [Compound 39, (3Z)-5-isopropoxy-3-[(5-tetrahydropyran-4-yl-1H-imidazol-2-yl)methylene]indolin-2-one], the Kd (numeric value) turned out to be 123 nM. On the same count and under the same terms, then `C/C(=C1/C(=O)Nc2ccc(OC(C)C)cc21)c1cnc(N2CCOCC2)[nH]1` [Compound 40, (3Z)-5-isopropoxy-3-[1-(2-morpholino-1H-imidazol-5-yl)ethylidene]indolin-2-one], with 22 nM; and `CC(C)Oc1cc(F)c2c(c1)/C(=C/c1cnc(N3CCOCC3)[nH]1)C(=O)N2` [Compound 36, (3Z)-7-fluoro-5-isopropoxy-3-[(2-morpholino-1H-imidazol-5-yl)methylene]indolin-2-one], with 67 nM; and `O=C1Nc2ccc(OCCF)cc2/C1=C/c1cnc(C2CCOCC2)[nH]1` [Compound 34, (3Z)-5-(2-fluoroethoxy)-3-[(2-tetrahydropyran-4-yl-1H-imidazol-5-yl)methylene]indolin-2-one], with 47.5 nM.

`CCc1ccc2c(c1)/C(=C/c1cnc(C3CCOCC3)[nH]1)C(=O)N2` [Compound 29, (3Z)-5-ethyl-3-[(2-tetrahydropyran-4-yl-1H-imidazol-5-yl)methylene]indolin-2-one] displayed a Kd (numeric value) of 54 nM. The Kd values of the last two molecules are within 1.5-fold of each other. On the same count and under the same terms, to `CC(C)Oc1ccc2c(c1)/C(=C/c1cnc(CN3CCOCC3)[nH]1)C(=O)N2` [Compound 23, (3Z)-5-isopropoxy-3-[[2-(morpholinomethyl)-1H-imidazol-5-yl]methylene]indolin-2-one] belongs 420 nM; to `CC(C)Cc1ncc(/C=C2\C(=O)Nc3ccc(OC(C)C)cc32)[nH]1` [Compound 22, (3Z)-3-[(2-isobutyl-1H-imidazol-5-yl)methylene]-5-isopropoxy-indolin-2-one], 32.5 nM. The same measure, in the same setting: then `COc1ccc2c(c1)/C(=C/c1cnc(-c3c(F)cccc3F)[nH]1)C(=O)N2` [Compound 20, (3Z)-3-[[2-(2,6-difluorophenyl)-1H-imidazol-5-yl]methylene]-5-methoxy-indolin-2-one], with 150 nM; and `O=C1Nc2ccc(Cl)cc2/C1=C/c1cnc(C2CCOCC2)[nH]1` [Compound 32, (3Z)-5-chloro-3-[(2-tetrahydropyran-4-yl-1H-imidazol-5-yl)methylene]indolin-2-one], with 59 nM; and `CC(C)Oc1ccc2c(c1)/C(=C/c1cnc(N3CCOCC3)[nH]1)C(=O)N2` [Compound 27, (3Z)-5-isopropoxy-3-[(2-morpholino-1H-imidazol-5-yl)methylene]indolin-2-one], with 15.5 nM. Still for that read-out and setting: then `CC(C)Oc1ccc2c(c1)/C(=C/c1nnc(C(C)C)[nH]1)C(=O)N2` [Compound 26, (3Z)-5-isopropoxy-3-[(5-isopropyl-4H-1,2,4-triazol-3-yl)methylene]indolin-2-one], with 12500 nM; and `CC(C)Oc1ccc2c(c1)/C(=C/c1cnc(C3CCOCC3)[nH]1)C(=O)N2` [Compound 30, (3Z)-5-isopropoxy-3-[(2-tetrahydropyran-4-yl-1H-imidazol-5-yl)methylene]indolin-2-one], with 28 nM. With `O=C1Nc2ccc(O)cc2/C1=C/c1cnc(C2CCOCC2)[nH]1` [Compound 28, (3Z)-5-hydroxy-3-[(2-tetrahydropyran-4-yl-1H-imidazol-5-yl)methylene]indolin-2-one], under “numeric value”, the Kd was found to be 68 nM. Molecule `CC(C)Oc1ccc2c(c1)/C(=C/c1cnc(C(C)C)[nH]1)C(=O)N2` [Compound 21, (3Z)-5-isopropoxy-3-[(2-isopropyl-1H-imidazol-5-yl)methylene]indolin-2-one] registered a dissociation constant Kd (numeric value) of 16.5 nM. On the same count and under the same terms, to `CC(C)Oc1ccc2c(c1)/C(=C/c1cnc(N(C)C)[nH]1)C(=O)N2` [Compound 35, (3Z)-3-[[2-(dimethylamino)-1H-imidazol-5-yl]methylene]-5-isopropoxy-indolin-2-one] belongs 32 nM.

`CC(C)Oc1cc2c(cc1F)NC(=O)/C2=C\c1cnc(C2CCOCC2)[nH]1` [Compound 41, (3Z)-6-fluoro-5-isopropoxy-3-[(2-tetrahydropyran-4-yl-1H-imidazol-5-yl)methylene]indolin-2-one] came in with a Kd (numeric value) of 25 nM. Same read-out and setting: to `CCN1CCN(c2ncc(/C=C3\C(=O)Nc4cc(F)c(OC(C)C)cc43)[nH]2)CC1` [Compound 44, (3Z)-3-[[2-(4-ethylpiperazin-1-yl)-1H-imidazol-5-yl]methylene]-6-fluoro-5-isopropoxy-indolin-2-one] belongs 41 nM; to `CC(C)Oc1cc2c(cc1F)NC(=O)/C2=C\c1cnc(N2CCOCC2)[nH]1` [Compound 37, (3Z)-6-fluoro-5-isopropoxy-3-[(2-morpholino-1H-imidazol-5-yl)methylene]indolin-2-one], 24 nM; to `CC(C)Oc1cc2c(cc1F)NC(=O)/C2=C\c1cnc(C2CCN(CCF)CC2)[nH]1` [Compound 43, (3Z)-6-fluoro-3-[[2-[1-(2-fluoroethyl)-4-piperidyl]-1H-imidazol-5-yl]methylene]-5-isopropoxy-indolin-2-one], 34 nM.

`CC(C)Oc1ccc2c(n1)/C(=C/c1cnc(C3CCOCC3)[nH]1)C(=O)N2` [Compound 46, (3Z)-5-isopropoxy-3-[(2-tetrahydropyran-4-yl-1H-imidazol-5-yl)methylene]-1H-pyrrolo[3,2-b]pyridin-2-one] gave a Kd (numeric value) of 250 nM.

Consider `O=C1Nc2ccc(Cl)cc2/C1=C/c1cnc(C2CCN(CCF)CC2)[nH]1` [Compound 33, (3Z)-5-chloro-3-[[2-[1-(2-fluoroethyl)-4-piperidyl]-1H-imidazol-5-yl]methylene]indolin-2-one], for which, for the setting “numeric value”, binding was put at a Kd of 150 nM. Against the preceding molecule, the Kd is about 1.7-fold lower. As for `CC(C)Oc1ccc2c(c1F)/C(=C/c1cnc(N3CCOCC3)[nH]1)C(=O)N2` [Compound 38, (3Z)-4-fluoro-5-isopropoxy-3-[(2-morpholino-1H-imidazol-5-yl)methylene]indolin-2-one], where the note is “class symbol”, the Kd is no less than 1000 nM. Consider `CC(C)Oc1cc2c(cn1)NC(=O)/C2=C\c1cnc(C2CCOCC2)[nH]1` [Compound 45, (3Z)-5-isopropoxy-3-[(2-tetrahydropyran-4-yl-1H-imidazol-5-yl)methylene]-1H-pyrrolo[2,3-c]pyridin-2-one], for which, under “numeric value”, the affinity, expressed as Kd, was 260 nM. This counts as sub-micromolar. Same read-out and setting: to `COCCc1ncc(/C=C2\C(=O)Nc3ccc(OC)cc32)[nH]1` [Compound 24, (3Z)-5-methoxy-3-[[2-(2-methoxyethyl)-1H-imidazol-5-yl]methylene]indolin-2-one] belongs 450 nM; to `C/C(=C1/C(=O)Nc2cc(F)c(OC(C)C)cc21)c1cnc(N2CCOCC2)[nH]1` [Compound 42, (3Z)-6-fluoro-5-isopropoxy-3-[1-(2-morpholino-1H-imidazol-5-yl)ethylidene]indolin-2-one], 57 nM.

For the origin of these results see US20140205537A1, “LRRK2 INHIBITORS” (ZENOBIA THERAPEUTICS, INC., priority 2011, published 2014).
